These results are taken from patent US11352352B2, “Aminopyrimidine compound, preparation method therefor and use thereof” (BEIJING ADAMADLE BIOTECHNOLOGY LIMITED LIABILITY COMPANY, priority 2017, dated 2022).

The test system of one series is A-431. The series can be described thus: Cell proliferation inhibition experiment, CellTiter-Glo (CTG) method. The class given is cell-based. Particulars: Homo sapiens, A-431, 72 h, A-431 cells, 3 days. In short, it runs like this: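 Luminescent ATP read-out (CellTiter-Glo) after 3-day compound exposure at 37 °C; a T0 plate was read on the day of dosing. Nine concentrations, 3-fold steps, triplicate wells: A-431 from 30 μM, NCI-H1975 and PC-9 from 1.111 μM. IC50 by non-linear S-curve regression.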

A further series concerns PC-9. The series is described as above. Format: cell-based. Particulars: Homo sapiens, PC-9, 72 h, PC-9 cells, 3 days. In short, it runs like this:
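Cells in log-phase growth (viability above 90% by trypan blue) were seeded at 90 μL per well in black-walled, clear-bottom 96-well plates and incubated overnight at 37° C., 5% CO2. A T0 plate was read the next day. Test compounds were added at nine concentrations in triplicate with a solvent control. Viability was measured by CellTiter-Glo luminescence on EnVision, and IC50 came from non-linear S-curve fitting in GraphPad Prism 5.0.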

The subject of the next series is NCI-H1975. The series is described as above. Particulars: for IC50: Homo sapiens, NCI-H1975, 72 h, NCI-H1975 cells, CTG, 3 days; for A-431/NCI-H1975 Selectivity: ratio of A-431 IC50 to NCI-H1975 IC50. The class given is cell-based. In short, it runs like this:
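NCI-H1975 cells with viability above 90% by trypan blue were seeded at 90 μL per well in black 96-well plates and incubated overnight at 37° C., 5% CO2. Compounds were added at nine concentrations in triplicate, and viability was measured with CellTiter-Glo luminescence on EnVision. IC50 came from non-linear S-curve fitting in GraphPad Prism 5.0.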

A further series concerns the target T1, P-gp (Homo sapiens, UniProt P08183).
T1 construct: expressed in transfected cells; host or cells: MDCKII-MDR1 (MDCKII canine kidney cells expressing MDR1)
The series can be described thus: P-gp substrate evaluation experiment (MDCKII-MDR1 Transwell drug penetration test). Format: in vitro ADME. Particulars: dog, MDCK-MDR1, pH 7.4; read-out: ER (Efflux Ratio). Here is the method:
P-gp Substrate Evaluation Experiment
Cell Culture • 1) High glucose DMEM medium containing L-glutamine was used and 10% fetal bovine serum, 0.1 mg/mL streptomycin and 0.6 mg/mL penicillin were added. • 2) MDCKII-MDR1 was cultured in a T-75 cell culture bottle. The incubator was set at the condition of 37° C., 5% CO2 and 95% relative humidity. Cells could be inoculated in Transwell when the cell confluence reached 70-90%. • 3) Before cell plant, 50 μL cell culture medium was added to each well in the upper chamber of the Transwell, and […] cell culture medium was added to the lower chamber of the Transwell.
Inoculation of MDCKII-MDR1 Cells • 1) Cell suspension was added to the upper chamber of the 96-well Transwell plate with […] each well, and the final inoculation density was 5.45×10^5 cells/cm^2. • 2) The medium was changed 48 hours after inoculation, the culture was carried out for 4-7 days, and the medium was changed every other day.
Evaluation of Cell Monolayer Integrity • 1) After 4-7 days of culture, MDCKII-MDR1 and MDKII should merge and differentiate completely. At this time, they could be applied to penetration test. • 2) The resistance of cell monolayer was measured by a resistance meter (Millipore, USA) and the resistance of each well was recorded. • 3) After finishing the detection, the Transwell plate was put back into the incubator. • 4) Resistance value was calculated: Resistance measured (ohms)×layer area (cm^2)=TEER value (ohm·cm^2)
If TEER value was less than 42 ohms·cm^2, the well can not be used for penetration testing.
Drug Penetration Test • 1) The MDCKII-MDR1 Transwell plate was taken out from the incubator. The cell monolayer was rinsed with HBSS buffer (25 mM HEPES, pH 7.4) twice and incubated for 30 minutes at 37° C. • 2) The transport rate of compounds from the top to the bottom was determined. […] 70 μL supernatant was drawn, diluted with equal volume of water and then subjected to LC-MS/MS analysis. All samples were prepared in three parallel ways. • 6) The cell monolayer integrity after 2-hour incubation was evaluated by leakage of fluorescent yellow, HBSS (25 mM HEPES, pH 7.4) was used to dilute the stock solution of fluorescent yellow till the final concentration was 100 μM. 100 μL fluorescent yellow solution was added to each well in the upper chamber of the Transwell plate and 300 μL HBSS (25 mM HEPES, pH 7.4) was added to each well in the lower chamber of the Transwell plate. After incubation at 37° C. for 30 minutes, 80 μL solution was drawn respectively from each well in the upper and lower chamber to a new 96-well plate. The fluorescence was determined at 485 nm as excitation wavelength and 530 nm as emission wavelength by using a microplate reader.
Data calculation was carried out through Excel, the apparent permeability index (Papp, cm/s) of compounds was calculated through the formula shown as follow: […]
wherein, the membrane area in the formula is the membrane area of Transwell-96 plate (0.143 cm^2); the unit of incubation time is second (s).
Efflux ratio was calculated through the formula shown as follow: […]

T1 sequence (P08183 whole entry): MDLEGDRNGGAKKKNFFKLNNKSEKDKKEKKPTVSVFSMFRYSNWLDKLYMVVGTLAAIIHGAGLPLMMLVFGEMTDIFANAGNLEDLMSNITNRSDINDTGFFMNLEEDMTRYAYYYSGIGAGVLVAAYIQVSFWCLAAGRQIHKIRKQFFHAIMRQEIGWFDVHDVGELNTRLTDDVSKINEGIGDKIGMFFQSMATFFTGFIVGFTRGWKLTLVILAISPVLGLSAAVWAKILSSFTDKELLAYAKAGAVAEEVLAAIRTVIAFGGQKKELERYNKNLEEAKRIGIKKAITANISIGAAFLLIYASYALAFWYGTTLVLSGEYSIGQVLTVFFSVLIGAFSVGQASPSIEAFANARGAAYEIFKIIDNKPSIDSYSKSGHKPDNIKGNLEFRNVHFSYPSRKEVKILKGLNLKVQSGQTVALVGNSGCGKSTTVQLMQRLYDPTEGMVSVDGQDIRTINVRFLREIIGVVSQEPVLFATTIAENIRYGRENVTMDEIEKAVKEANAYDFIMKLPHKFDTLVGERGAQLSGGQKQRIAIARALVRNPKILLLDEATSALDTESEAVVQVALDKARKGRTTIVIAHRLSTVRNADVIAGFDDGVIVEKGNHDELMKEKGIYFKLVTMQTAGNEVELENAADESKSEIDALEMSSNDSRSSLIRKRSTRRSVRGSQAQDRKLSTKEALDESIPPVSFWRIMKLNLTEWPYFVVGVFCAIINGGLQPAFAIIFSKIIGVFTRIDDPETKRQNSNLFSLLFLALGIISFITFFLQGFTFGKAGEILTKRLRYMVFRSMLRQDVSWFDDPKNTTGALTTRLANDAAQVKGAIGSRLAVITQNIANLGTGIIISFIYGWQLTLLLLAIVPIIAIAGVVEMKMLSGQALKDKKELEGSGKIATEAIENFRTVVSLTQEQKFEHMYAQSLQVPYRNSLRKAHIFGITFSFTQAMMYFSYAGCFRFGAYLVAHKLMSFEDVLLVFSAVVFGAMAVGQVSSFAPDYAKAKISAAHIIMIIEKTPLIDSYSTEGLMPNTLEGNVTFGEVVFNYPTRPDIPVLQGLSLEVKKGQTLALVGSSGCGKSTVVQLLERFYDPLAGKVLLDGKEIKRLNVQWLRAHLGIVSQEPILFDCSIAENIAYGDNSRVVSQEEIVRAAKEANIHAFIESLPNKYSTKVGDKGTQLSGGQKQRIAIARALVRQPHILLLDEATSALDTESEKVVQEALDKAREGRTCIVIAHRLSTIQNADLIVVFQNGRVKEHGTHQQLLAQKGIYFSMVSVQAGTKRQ

`C=CC(=O)Nc1cc(Nc2cc(-c3ccc4c(cnn4C)c3)ncn2)c(OC(F)F)cc1N1CCC(N(CC)CC)CC1` [compound 168]: the IC50 in the series on A-431 came out at 584 nM; with PC-9, 21.5 nM; with NCI-H1975, 6.8 nM. In addition, in the series on NCI-H1975, the “A-431/NCI-H1975 Selectivity” value was determined as 85.9. Also, the efflux ratio at 2 h on P-gp was determined as 23.1.

As to `C=CC(=O)Nc1cc(Nc2cc(-c3ccc4c(cnn4C)c3)ncn2)c(OC)cc1N1CCN(CCO)CC1` [compound 267], the IC50 in the series on A-431 is 1040 nM; in the series on PC-9, 29.3 nM; in the series with NCI-H1975 it was 16.1 nM. Also, the “A-431/NCI-H1975 Selectivity” value in the series on NCI-H1975 was 64.4. In addition, the efflux ratio at 2 h at P-gp stood at 14.6.
